From PubChem BioAssay AID330 (DTP/NCI, 2004)
Several values for one entry are separate records, joined by “and”; a condition that tells them apart may be missing. Equal values may be shown once. Inconclusive results and toxic doses are left out.

System: P388 leukemia ip, CD2F1 mice, survival T/C
Assay: NCI In Vivo Anticancer Drug Screen. Data for tumor model P388 Leukemia (intraperitoneal) in CD2F1 (CDF1) mice
Details: endpoint: median survival time, higher = longer survival
Outline: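 Mice carrying the transplanted tumor received test compound or vehicle. Survival was recorded in each group, and the value is the treated-group measurement divided by that of the vehicle-treated control group.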

[1] = dose: 100.0 mg/kg/injection, schedule: Q04DX003 (ip), vehicle: saline
[2] = dose: 200.0 mg/kg/injection, schedule: Q04DX003 (ip), vehicle: saline
[3] = dose: 400.0 mg/kg/injection, schedule: Q04DX003 (ip), vehicle: saline
[4] = dose: 100.0 mg/kg/injection, schedule: Q04DX002 (ip), vehicle: saline with Tween-80
[5] = dose: 200.0 mg/kg/injection, schedule: Q04DX002 (ip), vehicle: saline with Tween-80
[6] = dose: 400.0 mg/kg/injection, schedule: Q04DX002 (ip), vehicle: saline with Tween-80
[7] = dose: 50.0 mg/kg/injection, schedule: Q01DX009 (ip), vehicle: saline with Tween-80
[8] = dose: 100.0 mg/kg/injection, schedule: Q01DX009 (ip), vehicle: saline with Tween-80
[9] = dose: 200.0 mg/kg/injection, schedule: Q01DX009 (ip), vehicle: saline with Tween-80
[10] = dose: 12.5 mg/kg/injection, schedule: Q01DX009 (ip), vehicle: Klucel (hydroxypropylcellulose) (HPC)
[11] = dose: 25.0 mg/kg/injection, schedule: Q01DX009 (ip), vehicle: Klucel (hydroxypropylcellulose) (HPC)
[12] = dose: 50.0 mg/kg/injection, schedule: Q01DX005 (ip), vehicle: Klucel (hydroxypropylcellulose) (HPC)
[13] = dose: 100.0 mg/kg/injection, schedule: Q01DX005 (ip), vehicle: Klucel (hydroxypropylcellulose) (HPC)
[14] = dose: 200.0 mg/kg/injection, schedule: Q01DX005 (ip), vehicle: Klucel (hydroxypropylcellulose) (HPC)
[15] = dose: 60.0 mg/kg/injection, schedule: Q01DX005 (ip), vehicle: saline with Tween-80
[16] = dose: 120.0 mg/kg/injection, schedule: Q01DX005 (ip), vehicle: saline with Tween-80
[17] = dose: 240.0 mg/kg/injection, schedule: Q01DX005 (ip), vehicle: saline with Tween-80
[18] = dose: 50.0 mg/kg/injection, schedule: Q01DX005 (ip), vehicle: saline with Tween-80
[19] = dose: 100.0 mg/kg/injection, schedule: Q01DX005 (ip), vehicle: saline with Tween-80
[20] = dose: 200.0 mg/kg/injection, schedule: Q01DX005 (ip), vehicle: saline with Tween-80
[21] = dose: 100.0 mg/kg/injection, schedule: Q04DX003 (ip), vehicle: saline with Tween-80
[22] = dose: 200.0 mg/kg/injection, schedule: Q04DX003 (ip), vehicle: saline with Tween-80
[23] = dose: 400.0 mg/kg/injection, schedule: Q04DX003 (ip), vehicle: saline with Tween-80
[24] = dose: 30.0 mg/kg/injection, schedule: Q01DX005 (ip), vehicle: Klucel (hydroxypropylcellulose) (HPC)
[25] = dose: 60.0 mg/kg/injection, schedule: Q01DX005 (ip), vehicle: Klucel (hydroxypropylcellulose) (HPC)
[26] = dose: 50.0 mg/kg/injection, schedule: Q01DX009 (ip), vehicle: Klucel (hydroxypropylcellulose) (HPC)
[27] = dose: 100.0 mg/kg/injection, schedule: Q01DX009 (ip), vehicle: Klucel (hydroxypropylcellulose) (HPC)
[28] = dose: 200.0 mg/kg/injection, schedule: Q01DX009 (ip), vehicle: Klucel (hydroxypropylcellulose) (HPC)

CC(=O)/C=C1\C(=O)OCC1(C)C
T/C [1]: 105 % of control | T/C [2]: 108 % of control | T/C [3]: 111 % of control

Cc1cc(=O)[nH]c2c1ccc1ccccc12
T/C [4]: 95 % of control | T/C [5]: 93 % of control | T/C [6]: 99 % of control

CCCCOC1OCN(C(C)(C)C)CC1(C)C (centres undefined)
T/C (dose: 25.0 mg/kg/injection, schedule: Q01DX009 (ip), vehicle: saline with Tween-80): 101 % of control | T/C [7]: 100 % of control | T/C [8]: 113 % of control | T/C [9]: 111 % of control

CC(=O)O.CC(=O)O.[S-]CCN1CCOCC1.[Zn+2]
T/C [10]: 100 % of control | T/C [11]: 102 % of control

NC(CC(=O)O)P(=O)(O)O (centres undefined)
T/C (dose: 50.0 mg/kg/injection, schedule: Q01DX009 (ip), vehicle: saline): 93 % of control | T/C (dose: 100.0 mg/kg/injection, schedule: Q01DX009 (ip), vehicle: saline): 98 % of control | T/C (dose: 200.0 mg/kg/injection, schedule: Q01DX009 (ip), vehicle: saline): 107 % of control

COc1ccc2c(c1)N(S(=O)(=O)c1ccc(C)cc1)C/C(=C\N1CCN(C)CC1)C2=O
T/C [12]: 97 % of control | T/C [13]: 108 % of control | T/C [14]: 101 % of control

N#CC(c1ccccc1)C(CC(=O)c1ccccc1)c1ccccc1 (centres undefined)
T/C [8]: 86 % of control | T/C [9]: 95 % of control | T/C (dose: 400.0 mg/kg/injection, schedule: Q01DX009 (ip), vehicle: saline with Tween-80): 95 % of control

COC(=O)/C=C(\CCl)N=[N+]=[N-]
T/C [15]: 108 % of control | T/C [16]: 109 % of control | T/C [17]: 107 % of control

CC1(C2(C)CC2(Br)Br)CC1(Br)Br (centres undefined)
T/C [12]: 101 % of control | T/C [13]: 102 % of control | T/C [14]: 114 % of control

O=C1OC2CC13Cc1ccccc1C3(C(=O)O)CC2I (centres undefined)
T/C [15]: 104 % of control | T/C [16]: 106 % of control | T/C [17]: 100 % of control

CCOC(=O)/C(Nc1ccc(C(=O)OCC)cc1)=C1\COc2nc(N)[nH]c(=O)c2N1
T/C [18]: 93 % of control | T/C [19]: 91 % of control | T/C [20]: 107 % of control

CC(Oc1ccc(Cl)cc1Cl)C(=O)NC(Cc1ccccc1)C(=O)O (centres undefined)
T/C [18]: 102 % of control | T/C [19]: 110 % of control | T/C [20]: 102 % of control

CC(O)(Cc1ccccc1)c1ccccc1 (centres undefined)
T/C [21]: 100 % of control | T/C [22]: 104 % of control | T/C [23]: 109 % of control

CC1C(c2ccccc2)OC2N1CN(C(C)(C)C)CC2(C)C (centres undefined)
T/C [7]: 100 % of control | T/C [8]: 104 % of control | T/C [9]: 105 % of control

Cc1cc(NS(=O)(=O)c2ccc(NC(=O)NCCCl)cc2)no1
T/C [24]: 99 % of control | T/C [25]: 98 % of control | T/C (dose: 120.0 mg/kg/injection, schedule: Q01DX005 (ip), vehicle: Klucel (hydroxypropylcellulose) (HPC)): 100 % of control | T/C (dose: 240.0 mg/kg/injection, schedule: Q01DX005 (ip), vehicle: Klucel (hydroxypropylcellulose) (HPC)): 100 % of control

Cc1cccnc1Nc1ncccc1C
T/C (dose: 60.0 mg/kg/injection, schedule: Q01DX005 (ip), vehicle: saline): 102 % of control | T/C (dose: 120.0 mg/kg/injection, schedule: Q01DX005 (ip), vehicle: saline): 102 % of control | T/C (dose: 240.0 mg/kg/injection, schedule: Q01DX005 (ip), vehicle: saline): 102 % of control

CC(=O)Nc1ccc(S(=O)(=O)Nc2ccc3oc(=O)[nH]c3c2)cc1
T/C (dose: 100.0 mg/kg/injection, schedule: Q01DX001 (ip), vehicle: Klucel (hydroxypropylcellulose) (HPC)): 98 % of control | T/C (dose: 200.0 mg/kg/injection, schedule: Q01DX001 (ip), vehicle: Klucel (hydroxypropylcellulose) (HPC)): 93 % of control | T/C (dose: 400.0 mg/kg/injection, schedule: Q01DX001 (ip), vehicle: Klucel (hydroxypropylcellulose) (HPC)): 92 % of control

COC(=O)CCC1=C(OC)C(=O)C(OC)=CC1=O
T/C [7]: 112 % of control | T/C [8]: 100 % of control

CC1(C)CCC(C)(C)NC(=S)N1
T/C (dose: 3.13 mg/kg/injection, schedule: Q01DX009 (ip), vehicle: saline with Tween-80): 96 % of control | T/C (dose: 6.25 mg/kg/injection, schedule: Q01DX009 (ip), vehicle: saline with Tween-80): 105 % of control | T/C (dose: 12.5 mg/kg/injection, schedule: Q01DX009 (ip), vehicle: saline with Tween-80): 96 % of control

N#CC1C(=O)NC(=O)C(C#N)C1c1c2ccccc2cc2ccccc12 (centres undefined)
T/C [26]: 100 % of control | T/C [27]: 100 % of control | T/C [28]: 100 % of control

COc1cccc(C(=O)c2ccccc2C(=O)O)c1
T/C [12]: 101 % of control | T/C [13]: 105 % of control | T/C [14]: 103 % of control

CCCC(=O)N[C@H]1CCc2cc(OC)c(OC)c(OC)c2-c2ccc(SC)c(=O)cc21
T/C (dose: 0.38 mg/kg/injection, schedule: Q01DX009 (ip), vehicle: distilled water + Tween-80): 156 % of control | T/C (dose: 0.75 mg/kg/injection, schedule: Q01DX009 (ip), vehicle: distilled water + Tween-80): 160 % of control | T/C (dose: 0.75 mg/kg/injection, schedule: Q01DX009 (ip), vehicle: water): 182 % of control | T/C (dose: 1.5 mg/kg/injection, schedule: Q01DX009 (ip), vehicle: water): 231 % of control

CC1(C)OC2OC(C3COS(=O)O3)C(Cl)C2O1 (centres undefined)
T/C [15]: 107 % of control | T/C [16]: 113 % of control | T/C [17]: 114 % of control

Nc1nc(=S)ss1
T/C [10]: 116 % of control and 98 % of control | T/C [11]: 107 % of control and 111 % of control | T/C [26]: 109 % of control and 119 % of control | T/C [27]: 109 % of control

CCOC(=O)C(=C\c1nncn1-c1ccccc1)/C=C(/O)c1ccccc1
T/C (dose: 15.0 mg/kg/injection, schedule: Q01DX005 (ip), vehicle: Klucel (hydroxypropylcellulose) (HPC)): 97 % of control | T/C [24]: 93 % of control | T/C [25]: 87 % of control

NC(CCC(=O)O)C(=O)NC(Cc1c[nH]c2ccccc12)C(=O)O (centres undefined)
T/C [18]: 103 % of control | T/C [19]: 96 % of control | T/C [20]: 105 % of control

CC(=O)OC1C=CC(O)N(C(C)=O)C1SC1C2CC3CC(C2)CC1C3 (centres undefined)
T/C [1]: 101 % of control | T/C [2]: 101 % of control | T/C [3]: 108 % of control

O=C1CN(CCCO)CC(=O)N2Cc3ccccc3CN12
T/C (dose: 50.0 mg/kg/injection, schedule: Q01DX005 (ip), vehicle: saline): 94 % of control | T/C (dose: 100.0 mg/kg/injection, schedule: Q01DX005 (ip), vehicle: saline): 100 % of control | T/C (dose: 200.0 mg/kg/injection, schedule: Q01DX005 (ip), vehicle: saline): 99 % of control

COC(=O)C(C)NC(=O)Cc1ccccc1 (centres undefined)
T/C [21]: 104 % of control | T/C [22]: 100 % of control | T/C [23]: 90 % of control

O=C1C(CO)=C[C@H](O)[C@H]2O[C@@H]12
T/C (dose: 6.25 mg/kg/injection, schedule: Q01DX009 (ip), vehicle: saline + alcohol): 119 % of control | T/C (dose: 12.5 mg/kg/injection, schedule: Q01DX009 (ip), vehicle: saline + alcohol): 152 % of control | T/C (dose: 25.0 mg/kg/injection, schedule: Q01DX009 (ip), vehicle: saline + alcohol): 152 % of control and 157 % of control | T/C (dose: 50.0 mg/kg/injection, schedule: Q01DX009 (ip), vehicle: saline + alcohol): 106 % of control

O=c1[nH]c(-c2cccnc2)nnc1-c1ccc(Cl)cc1
T/C [18]: 102 % of control | T/C [19]: 103 % of control | T/C [20]: 96 % of control

[O-]/[N+](=C\c1ccccc1)c1ccccc1
T/C [21]: 104 % of control | T/C [22]: 99 % of control

O=c1[nH]c(-c2ccc(O)cc2)cc2ccccc12
T/C [4]: 99 % of control | T/C [5]: 100 % of control | T/C [6]: 100 % of control

COc1ccc2c(c1)sc1nc(Oc3ccccc3)nc(=O)n12
T/C [26]: 105 % of control | T/C [27]: 108 % of control | T/C [28]: 100 % of control
